Test results taken from patent US20250255293A1, “TISSUE DECONTAMINATION AND PRESERVATION SYSTEM” (priority 2024, published 2025).
Like-named read-outs stand apart in the source and are kept apart here.

Tests used:
[1] = test system: clinically relevant bacterial species; test: Quantitative microbial culture of osteoarticular fracture fragments (Example 5); type: cell-based, Roseomonas sp, Methylobacterium sp; details: for decontamination of osteoarticular tissues based on quantitative microbial tissue cultures (in words): days 7 and 14 of MOPS storage
Procedure: Skeletally mature purpose-bred research hounds (n=16) were humanely euthanized for purposes unrelated to the present study. Immediately following euthanasia, each dog was positioned in sternal recumbency with one forelimb extended and secured in a custom-made positioning apparatus. Fur was not clipped and no aseptic preparation or decontamination techniques were performed. Using a validated technique, a penetrating captive bolt stunner pistol (CASH Special, FRONTMATEC, Birmingham, United Kingdom) with a 1.25 grain cartridge was centered on the cranial (anterior) aspect of the distal humerus, immediately proximal to the elbow joint and with firm pressure against the secured elbow, the pistol was discharged, creating type 3 open distal humeral fractures. After the fractures were induced and radiographs obtained, the skin and soft tissues were aseptically removed. For each elbow (n=32), osteoarticular tissues were obtained from the distal humerus, proximal radius and proximal ulna such that 96 contaminated, devascularized, osteoarticular fracture fragments were randomly allocated to undergo treatment using one of the following protocols for comparison: 1)⋅Betadine (n=42): bulb irrigation using 1 L of 0.9% saline, followed by immersion in 10% povidone-iodine solution for 20 min, followed by bulb irrigation using 1 L of 0.9% saline; 2)⋅Chlorhexidine (n=42): bulb irrigation using 1 L of 0.9% saline, followed by immersion in 0.002% chlorhexidine gluconate solution immersion for 20 min, followed by bulb irrigation using 1 L of 0.9% saline; and 3)⋅Injured Control (n=12): no decontamination treatment. Each fragment was then immediately placed in 200 ml of Missouri Osteochondral Preservation System (MOPS®) solution in individual sterile closed containers, transported to the on-site laboratory and placed in a dedicated storage cabinet in standard room temperature and humidity conditions for 7 or 14 days.
Microbial Cultures. At days 7 (n=21) or 14 (n=21) of storage, osteoarticular fracture fragments were also collected and processed for quantitative microbial culture. […] Microorganism cultures were quantified using Colony-Forming Unit (CFU) counts per milliliter of broth. […] Post incubation, the number of colonies formed on each plate was counted. The number of CFUs per milliliter (CFU/ml) was calculated using the formula: CFU/ml=(number of colonies×dilution factor)/volume inoculated. […]
Statistical Analysis. All data were analyzed using statistical software R Studio, version 4.3.1 (Posit Software, Boston, MA, USA). Descriptive statistics for VCD, % VCD and CFU were calculated to report means, standard deviations, ranges and percentages. […]

[2] = test system: contaminated human femoral osteochondral allografts; details: 0.002% chlorhexidine gluconate, pulse lavage (1 L) / immediate intraoperative treatment, cited from earlier work
[3] = test system: microbial contamination of osteoarticular fracture fragments; test: Quantitative microbial culture of osteoarticular fragments, colony forming units per specimen (Example 3); type: cell-based; details: for Colony Forming Units, mean (SD): 20 min immersion (10% povidone-iodine or 0.002% chlorhexidine)
Excerpt: Purpose-bred hounds (n=16) were humanely euthanized, immediately after which an open articular fracture in both elbows (n=32) was created using a captive bolt pistol. Each dog was positioned in sternal recumbency with one forelimb extended and secured in a custom made positioning apparatus. Fur was not clipped and no aseptic preparation or techniques were implemented. A captive bolt stunner pistol with a 4.75-inch penetrating pin and 1.25 grain cartridge was centered on the cranial (anterior) aspect of the distal humerus, immediately proximal to the joint. With firm pressure against the secured elbow, the pistol was discharged, and the procedure was repeated for the contralateral elbow. Soft tissues were removed aseptically and the distal humerus (n=32), proximal radius (n=32), and trochlea (n=32) were osteotomized and processed under operating room conditions in 1 of 3 ways: 1) Betadine ([…]): 0.9% saline irrigation (1 L), 10% povidone-iodine solution immersion (20 min), saline irrigation; 2) Chlorhexidine (n=42): saline irrigation, 0.002% chlorhexidine solution immersion (20 min), saline irrigation; 3) Control (n=12): untreated. Each osteoarticular fragment was placed in 200 ml of MOPS® solution (500 ml DMEM, 5 ml ITS (insulin (10 mg/L), transferrin 55 mg/L), selenium (6.7 μg/L)), 5 ml total penicillin (100 U/ml), streptomycin (100 μg/ml), amphotericin B (2.5 μg/ml), 5 ml L-glutamine (2 mM), 5 ml non-essential amino acids (0.1 mM), 1 ml ascorbic acid (50 ng/ml), and 5.46 ml dexamethasone (0.1 μM)) in a sterile container and stored under standard room temperature and humidity conditions for 7 (n=46) or 14 (n=48) days. At each time point, viable chondrocyte density (VCD) and quantitative microbial culture assessments were assayed, yielding a count of colony forming units (CFU) per specimen.
In parallel, quantitative microbial cultures were performed on the humerus, radial head, and trochlea of each dog at either 7 or 14 days. Each tissue intended for culture was placed into 18 ml thioglycollate broth and vortexed for 30 seconds. One milliliter of the broth was immediately extracted for the 1:1 dilution and placed in an Eppendorf tube. Serial 1:10 dilutions were made from that subsample and plated within an hour. The plating process comprised 10 μl of each dilution streaked semi-quantitatively onto tryptic soy agar with 5% sheep blood and reduced blood agar. All dilutions were incubated for 72 hours before counting. Additional incubation in the remaining 17 ml thioglycollate for 48 hours was performed, and 10 μl of thioglycollate was re-streaked at that time and incubated for another 72 hours. Organisms were identified via MALDI-TOF or 16S sequencing.
Univariate comparison of VCD and CFU were performed via Kruskal-Wallis and Chi-squared test. Multivariate linear regression was used, controlling for osteotomy site and storage time, to determine the correlation between processing method and VCD or CFU. Data manipulation and statistical analysis were performed using R software.

[4] = listed as chlorhexidine gluconate

Q: What does the source list for `[H]/N=C(\N/C(=N/[H])NCCCCCCNC(=N)NC(=N)Nc1ccc(Cl)cc1)Nc1ccc(Cl)cc1` [Chlorhexidine, chlorhexidine gluconate]?
A: CFUs for clinically relevant bacterial species ([1]; days 7 and 14): No CFUs; decontamination of osteoarticular tissues based on quantitative microbial tissue cultures (in words) [1]: effective at decontamination; decontamination of osteoarticular tissues based on quantitative microbial tissue cultures (in words) ([1]; listed as chlorhexidine): effectively decontaminated; decontamination of osteoarticular tissues based on quantitative microbial tissue cultures (in words) [1, 4]: effective for decontaminating; decontamination of contaminated osteochondral allografts ([2]; listed as Chlorhexidine Gluconate): effective decontamination; decontamination of contaminated osteochondral allografts [2, 4]: effective for complete decontamination; mean CFU ([3]; at 7 days): 0.4; mean CFU ([3]; at 14 days): 7.9; decrease of CFU relative to control treatment ([3]; multivariate linear regression, controlling for osteotomy site and storage timing): 15.8×10^6 CFU; decontamination of osteoarticular fracture fragments (in words) ([3]; saline irrigation, 0.002% chlorhexidine immersion, room temperature storage in MOPS): effective for decontaminating osteoarticular fracture fragments; Colony Forming Units, mean (SD) ([3]; storage time 7 days in MOPS at room temperature): 0.4 (1.8) 10^6 per specimen; Colony Forming Units, mean (SD) ([3]; storage time 14 days in MOPS at room temperature): 7.9 (14.2) 10^6 per specimen
